Test results taken from US11673925B2, “Oligopeptide with anti-inflammatory activity, preparation method, and application thereof” (NANJING UNIVERSITY OF FINANCE AND ECONOMICS, priority 2021, dated 2023).
Where a SMILES comes first, the peptide text is derived from it.

Tested on: RAW 264.7 normal macrophages
Assay type: cell-based
Text: (4) detection of effects of respective components (WGPH-I, WGPH-II, and WGPH-III) on the proliferation activity of RAW 264.7 normal macrophages by a methyl thiazolyl tetrazolium (MTT) assay
RAW 264.7 macrophages in a logarithmic growth phase are taken and prepared into a cell suspension of 3×10^4 cells/mL in a RPIM 1640 culture medium containing 10% FBS. Sample wells are set in a 96-well plate (also referred to as 96-well tissue culture plates), and 100 microliters (μL) of cell suspension are added to each sample well, and the cells are cultured in a cell incubator for 12 h to make the cells adhere to the wall. After removing the culture medium in the sample wells, different components WGPH-I (>3 kDa), WGPH-II (1˜3 kDa), and WGPH-III (<1 kDa) are dissolved in RPIM 1640 culture medium containing 10% FBS to prepare different concentrations of oligopeptide culture medium (0, 50, 100, 200, and 300 μg/mL) respectively, and then added to respective sample wells, 100 μL per well. A blank well is set, and compared with the sample wells, there is no cell, with 100 μL PBS instead of the oligopeptide culture medium. A control well is set, compared with the sample wells, there is cells, with 100 μL PBS instead of oligopeptide culture medium. […] The absorbance is measured at a wavelength of 570 nanometers (nm) in the microplate reader. […]

C[C@H](N)C(=O)N1CCC[C@H]1C(=O)N[C@@H](CCC(=O)O)C(=O)N1CCC[C@H]1C(=O)N[C@@H](CCC(=O)O)C(=O)N1CCC[C@H]1C(=O)N[C@@H](C)C(=O)N[C@@H](Cc1ccccc1)C(=O)O [oligopeptide] (H-APEPEPAF-OH)
effect on the proliferation activity of macrophages: no effect
